According to patent US20250289780A1, “N,N'-DIPHENYL-4,4'-BIPHENYLDICARBOXAMIDE ANALOGS AND THEIR USE IN CANCER TREATMENT” (Board of Regents, The University of Texas System, priority 2024, published 2025):
Entries after “also recorded” stand apart in the source; their conditions may differ.

How the values were obtained:
Bcl-xL = Bcl-xL (Homo sapiens, UniProt Q07817); assay: Fluorescence polarization (FP) binding assay, Bcl-xL
Experimental: (§1) FIGS. 3A-3B show binding affinity to Bcl-xL, Bcl-2 and Mcl-1 determined by FP assay. FIG. 3A: compounds 1-9 mimicking BH3 peptides of proapoptotic proteins (scaffold I). FIG. 3B: Bim-mimicking compounds 10-16 derived from scaffolds II-VIII.
(§2) Their binding affinities on Bcl-xL, Bcl-2, and Mcl-1 were determined by fluorescence polarization (FP) assays (FIG. 3A). […] The role of carboxylic acids at both ends of compound 1 was also studied.

Bcl-2 = Bcl-2 (Homo sapiens, UniProt P10415); assay: Fluorescence polarization (FP) binding assay, Bcl-2
Sequence of Bcl-2 (P10415 whole entry): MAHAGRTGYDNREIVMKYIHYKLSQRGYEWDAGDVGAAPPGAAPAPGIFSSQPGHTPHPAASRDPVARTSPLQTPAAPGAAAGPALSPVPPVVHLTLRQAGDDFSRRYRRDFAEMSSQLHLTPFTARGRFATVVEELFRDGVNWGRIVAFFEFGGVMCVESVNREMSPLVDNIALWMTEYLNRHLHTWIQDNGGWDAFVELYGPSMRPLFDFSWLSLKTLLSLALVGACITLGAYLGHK
Experimental: as §1, §2

Mcl-1 = Mcl-1 (Homo sapiens, UniProt Q07820); assay: Fluorescence polarization (FP) binding assay, Mcl-1
Sequence of Mcl-1 (Q07820 whole entry): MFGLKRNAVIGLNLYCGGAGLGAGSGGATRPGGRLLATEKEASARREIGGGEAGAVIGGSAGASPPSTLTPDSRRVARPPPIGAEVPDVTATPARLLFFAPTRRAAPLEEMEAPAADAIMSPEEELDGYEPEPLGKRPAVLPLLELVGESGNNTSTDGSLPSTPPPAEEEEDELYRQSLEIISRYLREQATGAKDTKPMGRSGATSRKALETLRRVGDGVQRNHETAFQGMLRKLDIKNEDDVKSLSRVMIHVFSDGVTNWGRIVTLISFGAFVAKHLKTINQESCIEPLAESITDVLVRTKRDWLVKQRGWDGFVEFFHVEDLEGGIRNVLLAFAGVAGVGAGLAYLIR
Experimental: as §1, §2

[1] = biological target: T1, interaction of Bak with Bcl-xL (Homo sapiens, UniProt Q07817); assay: Co-immunoprecipitation in PC3 cells, Bak/Bcl-xL; type: cell-based; details: 10 μM, 24 h, immunoprecipitation and western blotting
T1 construct: endogenous in cells; host or cells: PC3 cells
T1 sequence (Q07817 whole entry): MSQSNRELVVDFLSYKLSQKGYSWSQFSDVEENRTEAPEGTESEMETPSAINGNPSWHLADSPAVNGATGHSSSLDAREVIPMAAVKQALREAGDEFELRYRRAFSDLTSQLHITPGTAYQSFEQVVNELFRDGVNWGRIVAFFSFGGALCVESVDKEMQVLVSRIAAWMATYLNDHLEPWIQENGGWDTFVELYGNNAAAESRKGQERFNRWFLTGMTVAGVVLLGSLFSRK
Experimental: (§3) FIGS. 5A-5F show cellular activity of mimetics 1, 14, and 23. FIG. 5A: effect of mimetics on the interaction between Bak and antiapoptotic proteins. PC3 cells were incubated in the presence or absence of mimetics (10 μM) for 24 h and cell lysates were analyzed by immunoprecipitation followed by western blotting. FIG. 5B: mitochondrial membrane depolarization by mimetics. PC3 cells that were treated with mimetics, ABT737 or MIM1 were stained with JC-1 dye and analyzed for change in red to green fluorescence intensity ratio of JC-1 dye. FIG. 5C: activation of caspase-3/-9 by mimetics. PC3 cells were treated with different concentrations of mimetics, ABT737, and MIM1 for 24 h and activities of caspase-3/-9 were measured using caspase-specific colorimetric assay kits. FIG. 5D: downregulation of Mcl-1 by siRNA. PC3 cells were transfected with Mcl-1 siRNA (30 μmol) or control siRNA (30 μmol) for 24 h and cell lysates were analyzed by western blotting. FIG. 5E: effect of Mcl-1 knockdown on mimetics-induced caspase activation. Same as for C except for the use of Mcl-1 knockdown PC3 cells. FIG. 5F: effect of Mcl-1 knockdown on mimetics-induced cell growth. PC3 cells were treated with mimetics (10 μM) or MIM1 (10 μM) for 24 h and cell viability was determined using MTT assay. […]

[2] = biological target: T2, interaction of Bak with Bcl-2 (Homo sapiens, UniProt P10415); assay: Co-immunoprecipitation in PC3 cells, Bak/Bcl-2; type: cell-based; details: 10 μM, 24 h, immunoprecipitation and western blotting
T2 construct: endogenous in cells; host or cells: PC3 cells
T2 sequence (P10415 whole entry): as the sequence (P10415 whole entry) above
Experimental: as §3

[3] = biological target: T3, interaction of Bak with Mcl-1 (Homo sapiens, UniProt Q07820); assay: Co-immunoprecipitation in PC3 cells, Bak/Mcl-1; type: cell-based; details: 10 μM, 24 h, immunoprecipitation and western blotting
T3 construct: endogenous in cells; host or cells: PC3 cells
T3 sequence (Q07820 whole entry): as the sequence (Q07820 whole entry) above
Experimental: as §3

PC3 cells [4] = assay: Mitochondrial membrane depolarization, JC-1 staining; type: cell-based
Experimental: FIGS. 5A-5F show cellular activity of mimetics 1, 14, and 23. FIG. 5A: effect of mimetics on the interaction between Bak and antiapoptotic proteins. PC3 cells were incubated in the presence or absence of mimetics (10 μM) for 24 h and cell lysates were analyzed by immunoprecipitation followed by western blotting. FIG. 5B: mitochondrial membrane depolarization by mimetics. PC3 cells that were treated with mimetics, ABT737 or MIM1 were stained with JC-1 dye and analyzed for change in red to green fluorescence intensity ratio of JC-1 dye. FIG. 5C: activation of caspase-3/-9 by mimetics. PC3 cells were treated with different concentrations of mimetics, ABT737, and MIM1 for 24 h and activities of caspase-3/-9 were measured using caspase-specific colorimetric assay kits. FIG. 5D: downregulation of Mcl-1 by siRNA. PC3 cells were transfected with Mcl-1 siRNA (30 μmol) or control siRNA (30 μmol) for 24 h and cell lysates were analyzed by western blotting. […] PC3 cells were treated with mimetics (10 μM) or MIM1 (10 μM) for 24 h and cell viability was determined using MTT assay.
These compounds were examined for their capabilities of inducing apoptosis. […] The formation of pores on the outer mitochondrial membrane and the resulting change in mitochondrial membrane potential were determined by JC-1 staining. […] The anti-proliferative activity was also evaluated using MTT assay in prostate cancer cells.

caspase-3/-9 = assay: Caspase-3/-9 colorimetric activity assay in PC3 cells; type: cell-based; details: for caspase-9/-3 activity (in words): PC3 cells, different concentrations, 24 h
Experimental: (§4) FIGS. 5A-5F show cellular activity of mimetics 1, 14, and 23. FIG. 5A: effect of mimetics on the interaction between Bak and antiapoptotic proteins. PC3 cells were incubated in the presence or absence of mimetics (10 μM) for 24 h and cell lysates were analyzed by immunoprecipitation followed by western blotting. FIG. 5B: mitochondrial membrane depolarization by mimetics. PC3 cells that were treated with mimetics, ABT737 or MIM1 were stained with JC-1 dye and analyzed for change in red to green fluorescence intensity ratio of JC-1 dye. FIG. 5C: activation of caspase-3/-9 by mimetics. PC3 cells were treated with different concentrations of mimetics, ABT737, and MIM1 for 24 h and activities of caspase-3/-9 were measured using caspase-specific colorimetric assay kits. FIG. 5D: downregulation of Mcl-1 by siRNA. PC3 cells were transfected with Mcl-1 siRNA (30 μmol) or control siRNA (30 μmol) for 24 h and cell lysates were analyzed by western blotting. FIG. 5E: effect of Mcl-1 knockdown on mimetics-induced caspase activation. Same as for C except for the use of Mcl-1 knockdown PC3 cells. FIG. 5F: effect of Mcl-1 knockdown on mimetics-induced cell growth. PC3 cells were treated with mimetics (10 μM) or MIM1 (10 μM) for 24 h and cell viability was determined using MTT assay.
(§5) These compounds were examined for their capabilities of inducing apoptosis. When effectors are released from anti-apoptotic proteins, they form pores on the outer mitochondrial membrane, leading to mitochondrial outer membrane permeabilization (MOMP) and cytochrome c release which promote caspase activation. The formation of pores on the outer mitochondrial membrane and the resulting change in mitochondrial membrane potential were determined by JC-1 staining. […] The anti-proliferative activity was also evaluated using MTT assay in prostate cancer cells.
(§6) Its specificity to Mcl-1 on prostate cancer cells with Mcl-1 silenced by siRNA (FIG. 5D) was further investigated. Compound 23 induced up to 3-fold increase in caspase-3/-9 activity in untransfected and control-transfected PC3 cells. Knockdown of Mcl-1, however, decreased the M161-induced caspase activity to the basal level (FIG. 5E). In MTT assay, 23 inhibited cell growth by 64% and 62% in untransfected and control-transfected PC3 cells, respectively.

LNCaP cells = assay: MTT anti-proliferative assay, LNCaP; type: cell-based; details: Homo sapiens, read-out: IC50, cell growth
Experimental: as §5

DU145 cells = assay: MTT anti-proliferative assay, DU145; type: cell-based; details: Homo sapiens, DU-145, read-out: IC50, cell growth
Experimental: as §5

PC3 cells [5] = assay: MTT anti-proliferative assay, PC3; type: cell-based; details: for cell growth inhibition: 10 μM, 24 h, MTT
Experimental: as §4, §5, §6

Sequence of Bcl-xL (Q07817 whole entry): as the sequence (Q07817 whole entry) above

| SMILES | binding affinity to Bcl-xL (in words) (Bcl-xL) | binding affinity to Bcl-2 (in words) (Bcl-2) | binding affinity to Mcl-1 (in words) (Mcl-1) | other results |
| --- | --- | --- | --- | --- |
| CCC(C)COc1cc(-c2ccc(C(=O)Nc3ccc(C(=O)O)cc3OC(C)CC)c(OC(C)CC)c2)ccc1C(=O)Nc1ccc(C(=O)O)cc1OCc1ccccc1 (stereo not shown) [Compound 22] | selective affinity only to Bcl-xL | – | – | IC50 (Bcl-xL): 650 nM |
| CCC(C)COc1cc(-c2ccc(C(=O)Nc3ccc(C(=O)O)cc3OC(C)C)c(OCCC(C)C)c2)ccc1C(=O)Nc1ccc(C(=O)O)cc1OC(C)CC (stereo not shown) [Compound 5] | negligible affinity; also recorded: not to Bcl-xL | – | – | – |
| CCC(C)COc1cc(-c2ccc(C(=O)Nc3ccc(C(=O)O)cc3OC(C)CC)c(OCCC(C)C)c2)ccc1C(=O)Nc1ccccc1OCc1ccccc1 (stereo not shown) [Compound 9] | complete loss in binding affinities | complete loss in binding affinities | complete loss in binding affinities | – |
| CCC(C)COc1cc(-c2ccc(C(=O)Nc3ccc(C(=O)O)cc3OC(C)CC)cc2OCCC(C)C)ccc1C(=O)Nc1ccc(C(=O)O)c(OCc2ccccc2)c1 (stereo not shown) [Compound 13] | substantially increased its affinity to Bcl-xL and Bcl-2 compared to Mcl-1 | substantially increased its affinity to Bcl-xL and Bcl-2 compared to Mcl-1 | – | – |
| CCC(C)COc1cc(-c2ccc(C(=O)Nc3ccc(C(=O)O)cc3OCC(C)C)c(OCCC(C)C)c2)ccc1C(=O)Nc1ccc(C(=O)O)cc1OCC(C)C (stereo not shown) [Compound 4] | – | very selective for inhibiting Bcl-2 over Bcl-xL and Mcl-1 | – | – |
| CCC(C)Oc1cc(C(=O)O)ccc1NC(=O)c1ccc(-c2ccc(C(=O)Nc3ccc(C(=O)O)cc3OC(C)CC)c(OC(C)CC)c2)cc1OCCC(C)C (stereo not shown) [Compound 20] | negligible binding | – | negligible binding | IC50 (Bcl-2): 340 nM |
| CCC(C)COc1cc(-c2ccc(C(=O)Nc3ccc(C(=O)O)cc3OC(C)CC)cc2OCCC(C)C)ccc1C(=O)Nc1ccc(C(=O)O)cc1OCc1ccccc1 (stereo not shown) [Compound 12] | significantly lost affinity | significantly lost affinity | significantly lost affinity | – |
| CCC(C)COc1cc(-c2ccc(C(=O)Nc3ccc(C(=O)O)cc3OC(C)CC)c(OCCC(C)C)c2)ccc1C(=O)Nc1ccc(C(=O)O)cc1OCc1ccccc1 (stereo not shown) [Compound 1, 3-(Benzyloxy)-4-(4′-((2-(sec-butoxy)-4-carboxyphenyl)carbamoyl)-3′-(isopentyloxy)-3-(2-methylbutoxy)-[1,1′-biphenyl]-4-carboxamido)benzoic acid] | – | – | – | IC50 (Bcl-xL): 140 to 230 nM; IC50 (Bcl-2): 140 to 230 nM; IC50 (Mcl-1): 140 to 230 nM; disruption of the interaction of Bak with Bcl-xL [1]: disrupted the interaction; disruption of the interaction of Bak with Bcl-2 [2]: disrupted the interaction; disruption of the interaction of Bak with Mcl-1 [3]: disrupted the interaction; red to green fluorescence intensity ratio of JC-1 dye (PC3 cells [4]): significantly reduced; caspase-9/-3 activity (in words) (caspase-3/-9): induced caspase-9/-3 activity in a dose-dependent manner; IC50 (LNCaP cells): 2.87 to 9.67 µM; IC50 (DU145 cells): 2.87 to 9.67 µM; IC50 (PC3 cells [5]; Homo sapiens, PC-3, PC3, MTT assay, read-out: IC50, cell growth): 2.87 to 9.67 µM |
| CCC(C)COc1cc(-c2ccc(C(=O)Nc3ccc(C(=O)O)c(OC(C)CC)c3)c(OCCC(C)C)c2)ccc1C(=O)Nc1ccc(C(=O)O)c(OCc2ccccc2)c1 (stereo not shown) [Compound 11] | selectivity for Bcl-xL and Bcl-2 | selectivity for Bcl-xL and Bcl-2 | – | – |
| CCC(C)Oc1cc(C(=O)O)ccc1NC(=O)c1ccc(-c2ccc(C(=O)Nc3ccc(C(=O)O)cc3OC(C)CC)c(OC(C)C)c2)cc1OCCC(C)C (stereo not shown) [Compound 23] | – | – | selectively inhibited only Mcl-1 | IC50 (Mcl-1): 160 nM; disruption of the interaction of Bak with Mcl-1 [3]: selectively inhibited Mcl-1 over Bcl-xL and Bcl-2; red to green fluorescence intensity ratio of JC-1 dye (PC3 cells [4]): significantly reduced; induced caspase activity (in words) (caspase-3/-9; Mcl-1 knockdown (siRNA) PC3 cells): basal level; caspase-9/-3 activity (in words) (caspase-3/-9): induced caspase-9/-3 activity in a dose-dependent manner; increase in caspase-3/-9 activity (caspase-3/-9; control-transfected PC3 cells): up to 3 fold; increase in caspase-3/-9 activity (caspase-3/-9; untransfected PC3 cells): up to 3 fold; cell growth inhibition (PC3 cells [5]; Mcl-1 knockdown PC3 cells): 18%; cell growth inhibition (PC3 cells [5]; control-transfected PC3 cells): 62%; cell growth inhibition (PC3 cells [5]; untransfected PC3 cells): 64% |

Further lines, with some results ahead:

| binding affinity to Bcl-xL (in words) (Bcl-xL) | binding affinity to Bcl-2 (in words) (Bcl-2) | binding affinity to Mcl-1 (in words) (Mcl-1) | SMILES | other results |
| --- | --- | --- | --- | --- |
| no inhibition | no inhibition | no inhibition | CCCCOc1cc(C(=O)O)ccc1NC(=O)c1ccc(-c2ccc(C(=O)Nc3ccc(C(=O)O)cc3OC(C)CC)c(OCCC(C)C)c2)cc1OCC(C)C (stereo not shown) [Compound 3] | – |
| lost affinity | maintaining affinity | maintaining affinity | CCC(C)COc1cc(-c2ccc(C(=O)Nc3ccc(C(=O)O)c(OC(C)CC)c3)c(OCCC(C)C)c2)ccc1C(=O)Nc1ccc(C(=O)O)cc1OCc1ccccc1 (stereo not shown) [Compound 10] | – |
| low affinity | high affinity | low affinity | CCCCCOc1cc(-c2ccc(C(=O)Nc3ccc(C(=O)O)cc3OC(C)CC)c(OCCC(C)C)c2)ccc1C(=O)Nc1ccc(C(=O)O)cc1OCC(C)C (stereo not shown) [Compound 2] | – |
| – | affinity only for Bcl-2 | – | CCOc1cc(C(=O)O)ccc1NC(=O)c1ccc(-c2ccc(C(=O)Nc3ccc(C(=O)O)cc3OCC(C)C)c(OCCc3ccccc3)c2)cc1OCCC(C)C [Compound 7] | – |
| did not bind | did not bind | did not bind | CCCCCOc1cc(-c2ccc(C(=O)Nc3ccc(C(=O)O)cc3OCc3ccc(F)cc3)c(OCCC(C)C)c2)ccc1C(=O)Nc1ccc(C(=O)O)cc1OCc1ccccc1 [Compound 6] | – |
